Data taken from PubChem BioAssay (NCI).
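Results reflect a 48-hour exposure of cells in 96-well plates to compound at five concentrations. At the TGI there is no net growth.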

Columns and labels:
Assay in all cases: NCI anticancer screen, dose series, 48 h
[1] = tested on: HT29 colon
[2] = tested on: NCI/ADR-RES ovarian
[3] = tested on: UO-31 renal
[4] = tested on: RXF 393 renal
[5] = tested on: T-47D breast
[6] = tested on: SK-MEL-5 melanoma
[7] = tested on: SF-295 CNS
[8] = tested on: M14 melanoma
[9] = tested on: 786-0 renal
[10] = tested on: SK-MEL-2 melanoma
[11] = tested on: MCF7 breast
[12] = tested on: SK-MEL-28 melanoma
[13] = tested on: ACHN renal
[14] = tested on: A498 renal
[15] = tested on: MDA-N
[16] = tested on: HCC-2998 colon
[17] = tested on: SR leukemia
[18] = tested on: PC-3 prostate
[19] = tested on: OVCAR-5 ovarian
[20] = tested on: NCI-H460 lung
[21] = tested on: EKVX NSCLC
[22] = tested on: CAKI-1 renal
[23] = tested on: OVCAR-4 ovarian
[24] = tested on: HCT-15 colon
[25] = tested on: SN12C renal
[26] = tested on: A549 NSCLC
[27] = tested on: HOP-92 NSCLC
[28] = tested on: OVCAR-3 ovarian
[29] = tested on: HS 578T breast
[30] = tested on: BT-549 breast
[31] = tested on: IGROV1 ovarian
[32] = tested on: DU-145 prostate
[33] = tested on: K-562 leukemia
[34] = tested on: KM12 colon
[35] = tested on: LOX IMVI melanoma
[36] = tested on: CCRF-CEM leukemia
[37] = tested on: OVCAR-8 ovarian
[38] = tested on: SW-620 colon
[39] = tested on: NCI-H522 lung
[40] = tested on: HL-60(TB) leukemia
[41] = tested on: MDA-MB-231 breast
[42] = tested on: SF-539 CNS
[43] = tested on: HOP-62 NSCLC
[44] = tested on: NCI-H23 lung
[45] = tested on: COLO 205 colon
[46] = tested on: NCI-H226 lung
[47] = tested on: MDA-MB-435
[48] = tested on: SNB-19 CNS
[49] = tested on: UACC-257 melanoma
[50] = tested on: UACC-62 melanoma
[51] = tested on: MOLT-4 leukemia
[52] = tested on: SF-268 CNS
[53] = tested on: RPMI-8226 leukemia
[54] = tested on: U251 CNS
[55] = tested on: TK-10 renal
[56] = tested on: HCT-116 colon
[57] = tested on: MALME-3M melanoma
[58] = tested on: SK-OV-3 ovarian

CC(=O)Nc1cc2cc(NS(=O)(=O)c3ccc(Cl)c(Cl)c3)ccc2oc1=O
TGI [1]: > 100 µM | TGI [2]: > 100 µM | TGI [3]: > 100 µM | TGI [4]: 25.6 µM | TGI [5]: 43.5 µM | TGI [6]: 58.6 µM | TGI [7]: 44.5 µM | TGI [8]: > 100 µM | TGI [9]: 32.4 µM | TGI [10]: > 100 µM | TGI [11]: 47.7 µM | TGI [12]: > 100 µM | TGI [13]: > 100 µM | TGI [14]: 40.7 µM | TGI [15]: > 100 µM | TGI [16]: > 100 µM | TGI [17]: > 100 µM | TGI [18]: 51.1 µM | TGI [19]: > 100 µM | TGI [20]: > 100 µM | TGI [21]: > 100 µM | TGI [22]: 56.4 µM | TGI [23]: > 100 µM | TGI [24]: > 100 µM | TGI [25]: 64.8 µM | TGI [26]: > 100 µM | TGI [27]: 60.5 µM | TGI [28]: > 100 µM | TGI [29]: 59.7 µM | TGI [30]: > 100 µM | TGI [31]: > 100 µM | TGI [32]: > 100 µM | TGI [33]: > 100 µM | TGI [34]: 92.3 µM | TGI [35]: 44.3 µM | TGI [36]: > 100 µM | TGI [37]: 31.6 µM | TGI [38]: > 100 µM | TGI [39]: 63.6 µM | TGI [40]: > 100 µM | TGI [41]: 46.2 µM | TGI [42]: 56.1 µM | TGI [43]: 46.7 µM | TGI [44]: > 100 µM | TGI [45]: 93.7 µM | TGI [46]: > 100 µM | TGI [47]: > 100 µM | TGI [48]: > 100 µM | TGI [49]: > 100 µM | TGI [50]: 62.8 µM | TGI [51]: > 100 µM | TGI [52]: 61.7 µM | TGI [53]: > 100 µM | TGI [54]: 45.5 µM | TGI [55]: > 100 µM | TGI [56]: 82.2 µM

COc1c(C(C)(C)C)cc(CC2C(=O)C=CC2=O)cc1C(C)(C)C
TGI [1]: 36.1 µM | TGI [2]: > 80.6 µM | TGI [3]: 27.5 µM | TGI [4]: 30.4 µM | TGI [5]: 12.7 µM | TGI [6]: 33.9 µM | TGI [57]: 49.6 µM | TGI [7]: 44 µM | TGI [8]: 39.6 µM | TGI [9]: > 22.3 µM | TGI [10]: 36.7 µM | TGI [11]: 45.5 µM | TGI [12]: 43.4 µM | TGI [13]: 22.5 µM | TGI [14]: 32.9 µM | TGI [15]: 39.6 µM | TGI [17]: 19.1 µM | TGI [18]: 35.8 µM | TGI [19]: 35.8 µM | TGI [20]: 41.2 µM | TGI [21]: 37.7 µM | TGI [22]: 30.5 µM | TGI [23]: 89.5 µM | TGI [24]: 37.6 µM | TGI [25]: > 73 µM | TGI [26]: 55.4 µM | TGI [27]: 37 µM | TGI [58]: 56 µM | TGI [28]: 33.9 µM | TGI [29]: 70.4 µM | TGI [30]: 41.1 µM | TGI [31]: 29.2 µM | TGI [32]: 15.5 µM | TGI [33]: 14.1 µM | TGI [34]: 34 µM | TGI [35]: 40.2 µM | TGI [36]: 14.9 µM | TGI [37]: 66.9 µM | TGI [38]: 28.2 µM | TGI [39]: 5.03 µM | TGI [40]: 11.3 µM | TGI [41]: 36.5 µM | TGI [42]: 48.3 µM | TGI [43]: 36.9 µM | TGI [44]: 48.9 µM | TGI [45]: 24 µM | TGI [47]: 37.4 µM | TGI [48]: 33.9 µM | TGI [49]: 32.4 µM | TGI [50]: 33.2 µM | TGI [51]: 10.3 µM | TGI [52]: 40 µM | TGI [53]: 11.6 µM | TGI [54]: 35.4 µM | TGI [55]: 12.1 µM | TGI [56]: 13 µM
